Measurements from ChEMBL document CHEMBL1201862, “PubChem BioAssay data set” (2004).
Active and inactive are the calls of the source.

What was measured:
J774.A1 = experiment: Confirmation of image-based Screening Assay for Inhibitors of Phagocytosis. [Related pubchem assays (depositor defined):AID1029, AID1643]; format: functional, cell-based; conditions: Mus musculus
[1] = inhibitors of firefly luciferase expression or activity, dose response, H4 neuroglioma cells, luminescence (AID 1990); format: functional, cell-based
[2] = luciferase reporter signal reduction – luminescence, H4-C neuroglioblastoma cells, dose response (AID 2458); format: functional, cell-based;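 further: H4 neuroglioblastoma cells stably carrying a luciferase reporter gene fusion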
BJ [3] = experiment: cytotoxicity toward BJ-TERT fibroblasts, dose response, cell-based, RAS-independent, luminescence (AID 1933); format: functional; conditions: Homo sapiens
cells = format: functional, cell-based
[4] = Luminescence Cell-Based Dose Response HTS to Identify Inhibitors of 5'UTR Stem-Loop Driven Prion Protein mRNA Translation in H4 Neuroglioblastoma Cells. [Related pubchem assays: 1827 (Project Summary), 1813 (Primary HTS)]; format: functional
[5] = inhibitors of SNCA 5'UTR-driven reporter translation, confirmation, H4 neuroglioma cells, luminescence (AID 1988); format: functional, cell-based
BJ [6] = experiment: cells; format: functional, cell-based; conditions: Homo sapiens
[7] = Luminescence-based dose response cell-based high throughput screening assay for cytotoxic compounds using the IEC-6 intestinal epithelial cell line. [Related pubchem assays: 1858 (Summary AID.), 1825 (Counterscreen.), 1907 (Confirmation screen.)]; format: functional
BJ [8] = experiment: cytotoxicity toward BJ-TERT-LT-ST fibroblasts, dose response, cell-based, RAS-independent, luminescence (AID 1935); format: functional; conditions: Homo sapiens;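 further: BJ fibroblasts immortalized with TERT plus LT and ST oncogenes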
[9] = cytotoxicity toward DRD oncogenic fibroblasts, dose response, cell-based, non-viral oncogenic, luminescence (AID 1934); format: functional; conditions: Homo sapiens
[10] = inhibitors of SNCA 5'UTR-driven translation, confirmation, luminescence, H4 neuroglioblastoma cells, dose confirmation (AID 2454); format: functional, cell-based;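 further: H4 neuroglioblastoma cells carrying an alpha-synuclein 5'UTR luciferase reporter; potency for inhibition of the luciferase signal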
[11] = target: Peroxisome proliferator-activated receptor gamma/Nuclear receptor coactivator 1 (Homo sapiens, UniProt P37231); experiment: (§1) TR-FRET dose response biochemical High Throughput Screening assay for agonists of the steroid receptor coactivator 1 (SRC-1) recruitment by the peroxisome proliferator-activated receptor gamma (PPAR gamma): non-selective agonists. [Related pubchem assays (depositor defined):AID1300, AID1808, AID504735, AID631]; format: protein assay
Bcl-2-like protein 10 = Bcl-2-like protein 10 (Homo sapiens, UniProt Q9HD36); experiment: displacers of TR3 peptide from Bcl-B, primary screen, selectivity assay for Bfl-1 inhibitor project, biochemical, fluorescence polarization, FITC-TR3 peptide (AID 748);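 further: fluorescence polarization from a fluorescein-labelled TR3 peptide binding purified Bcl-B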
Bcl-2-like protein 10, sequence (Q9HD36 whole entry): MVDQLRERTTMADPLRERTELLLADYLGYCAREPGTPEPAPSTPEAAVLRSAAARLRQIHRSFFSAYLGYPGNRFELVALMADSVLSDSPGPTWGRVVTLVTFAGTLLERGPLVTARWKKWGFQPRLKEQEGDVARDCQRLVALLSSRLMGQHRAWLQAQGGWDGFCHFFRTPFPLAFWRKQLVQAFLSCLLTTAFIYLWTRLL

[12] = target: Peroxisome proliferator-activated receptor gamma/Nuclear receptor coactivator 3 (Homo sapiens, UniProt P37231); experiment: as §1, with “3 (SRC-3)” for “1 (SRC-1)”, “assays: 1301 (Confirmation screen.), 1048 (Primary screen.)]” for “assays (depositor defined):AID1300, AID1808, AID504735, AID631]”; format: functional
Estrogen receptor beta = Estrogen receptor beta (Homo sapiens, UniProt Q92731);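 further: recombinant ER-beta bound to coactivator SRC1 peptide in presence of estradiol agonist; inhibitors block coactivator peptide binding and lower the FRET signal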
Estrogen receptor beta, sequence (Q92731 whole entry): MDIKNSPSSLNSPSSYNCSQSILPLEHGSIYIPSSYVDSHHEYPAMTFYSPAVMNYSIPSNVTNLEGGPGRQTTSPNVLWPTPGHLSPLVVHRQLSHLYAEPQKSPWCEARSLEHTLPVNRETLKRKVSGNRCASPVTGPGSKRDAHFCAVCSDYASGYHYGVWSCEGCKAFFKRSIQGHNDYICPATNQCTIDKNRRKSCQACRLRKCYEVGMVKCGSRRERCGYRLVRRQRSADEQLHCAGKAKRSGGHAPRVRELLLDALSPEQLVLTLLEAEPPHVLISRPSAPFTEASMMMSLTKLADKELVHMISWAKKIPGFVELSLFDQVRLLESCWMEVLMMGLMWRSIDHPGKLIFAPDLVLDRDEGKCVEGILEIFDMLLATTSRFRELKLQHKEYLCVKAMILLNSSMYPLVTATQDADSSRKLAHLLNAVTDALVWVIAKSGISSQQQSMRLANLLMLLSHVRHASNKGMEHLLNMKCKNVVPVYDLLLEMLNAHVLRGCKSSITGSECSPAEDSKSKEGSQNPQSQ

[13] = target: Peroxisome proliferator-activated receptor gamma/Nuclear receptor coactivator 2 (Homo sapiens, UniProt P37231); experiment: TR-FRET dose response biochemical High Throughput Screening assay for agonists of the steroid receptor coactivator 2 (SRC-2) recruitment by the peroxisome proliferator-activated receptor gamma (PPAR gamma): non-selective agonists. [Related pubchem assays: 1297, 1032 ]; format: functional
[14] = target: Mitogen-activated protein kinase 10 (Homo sapiens, UniProt P53779); experiment: Dose response biochemical screening assay for inhibitors of c-Jun N-Terminal Kinase 3 (JNK3). [Related pubchem assays: 746 ]
Mitogen-activated protein kinase 10, sequence (P53779 whole entry): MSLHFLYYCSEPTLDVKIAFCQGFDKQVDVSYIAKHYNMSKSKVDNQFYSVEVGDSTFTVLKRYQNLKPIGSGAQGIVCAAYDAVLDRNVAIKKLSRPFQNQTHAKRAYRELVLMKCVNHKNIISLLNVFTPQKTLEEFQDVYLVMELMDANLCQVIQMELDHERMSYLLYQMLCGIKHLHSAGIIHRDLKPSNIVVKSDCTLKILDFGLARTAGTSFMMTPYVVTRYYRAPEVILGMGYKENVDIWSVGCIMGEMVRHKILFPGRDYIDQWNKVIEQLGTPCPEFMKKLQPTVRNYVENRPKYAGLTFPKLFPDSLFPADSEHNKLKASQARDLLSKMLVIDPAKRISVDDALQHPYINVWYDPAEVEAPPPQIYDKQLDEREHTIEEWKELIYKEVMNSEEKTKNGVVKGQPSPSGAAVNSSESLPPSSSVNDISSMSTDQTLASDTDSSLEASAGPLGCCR

[15] = NIH-3T3 fibroblast cytotoxicity, dose response, cytotoxicity control, cell-based, fluorescence, Alamar Blue, secondary assay (AID 2327); format: functional;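 further: NIH-3T3 mouse fibroblasts cultured with fluconazole at 8 µg/mL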
[16] = C. albicans growth with fluconazole, confirmation, fluorescence, retest (AID 2467); format: functional, cell-based
[17] = target: NACHT, LRR and PYD domains-containing protein 3 (Homo sapiens, UniProt Q96P20); experiment: NALP3 inhibitors in yeast, dose response, luminescent (AID 488799); format: functional
NACHT, LRR and PYD domains-containing protein 3, sequence (Q96P20 whole entry, the tested form may be a part): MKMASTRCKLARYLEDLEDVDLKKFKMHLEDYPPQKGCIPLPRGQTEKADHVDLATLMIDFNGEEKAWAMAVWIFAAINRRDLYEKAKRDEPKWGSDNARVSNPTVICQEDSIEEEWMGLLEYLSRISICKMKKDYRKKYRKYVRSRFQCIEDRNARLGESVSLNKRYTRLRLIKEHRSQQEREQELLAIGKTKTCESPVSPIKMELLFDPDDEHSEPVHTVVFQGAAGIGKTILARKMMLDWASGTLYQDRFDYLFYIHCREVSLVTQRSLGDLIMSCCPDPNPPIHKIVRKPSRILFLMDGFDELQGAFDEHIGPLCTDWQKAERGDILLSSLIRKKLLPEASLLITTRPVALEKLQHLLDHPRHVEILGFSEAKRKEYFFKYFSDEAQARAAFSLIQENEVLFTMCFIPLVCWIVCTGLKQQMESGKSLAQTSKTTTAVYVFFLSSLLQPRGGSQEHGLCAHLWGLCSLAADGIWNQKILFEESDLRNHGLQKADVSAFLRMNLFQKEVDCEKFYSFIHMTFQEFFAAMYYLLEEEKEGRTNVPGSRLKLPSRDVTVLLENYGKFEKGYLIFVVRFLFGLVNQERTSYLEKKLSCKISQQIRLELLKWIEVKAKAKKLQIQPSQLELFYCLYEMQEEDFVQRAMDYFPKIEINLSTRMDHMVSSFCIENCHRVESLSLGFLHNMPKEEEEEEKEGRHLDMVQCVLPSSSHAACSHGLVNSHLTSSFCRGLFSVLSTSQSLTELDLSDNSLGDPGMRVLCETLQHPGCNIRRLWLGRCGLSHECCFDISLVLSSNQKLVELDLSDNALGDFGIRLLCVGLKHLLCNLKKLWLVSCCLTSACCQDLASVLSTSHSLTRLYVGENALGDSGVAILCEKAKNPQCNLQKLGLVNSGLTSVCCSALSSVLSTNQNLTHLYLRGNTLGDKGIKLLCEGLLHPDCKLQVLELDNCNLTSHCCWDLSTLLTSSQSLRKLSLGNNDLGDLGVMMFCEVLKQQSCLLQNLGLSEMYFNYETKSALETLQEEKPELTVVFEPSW

[18] = target: Transitional endoplasmic reticulum ATPase (Homo sapiens, UniProt P55072, C522A); experiment: C522A mutant p97 ATPase inhibitors, dose response, counter-screen for p97 inhibitor project, biochemical, luminescence (AID 1544)
Transitional endoplasmic reticulum ATPase (Homo sapiens, UniProt P55072, C522A), sequence (P55072 2-806 C522A limits assumed): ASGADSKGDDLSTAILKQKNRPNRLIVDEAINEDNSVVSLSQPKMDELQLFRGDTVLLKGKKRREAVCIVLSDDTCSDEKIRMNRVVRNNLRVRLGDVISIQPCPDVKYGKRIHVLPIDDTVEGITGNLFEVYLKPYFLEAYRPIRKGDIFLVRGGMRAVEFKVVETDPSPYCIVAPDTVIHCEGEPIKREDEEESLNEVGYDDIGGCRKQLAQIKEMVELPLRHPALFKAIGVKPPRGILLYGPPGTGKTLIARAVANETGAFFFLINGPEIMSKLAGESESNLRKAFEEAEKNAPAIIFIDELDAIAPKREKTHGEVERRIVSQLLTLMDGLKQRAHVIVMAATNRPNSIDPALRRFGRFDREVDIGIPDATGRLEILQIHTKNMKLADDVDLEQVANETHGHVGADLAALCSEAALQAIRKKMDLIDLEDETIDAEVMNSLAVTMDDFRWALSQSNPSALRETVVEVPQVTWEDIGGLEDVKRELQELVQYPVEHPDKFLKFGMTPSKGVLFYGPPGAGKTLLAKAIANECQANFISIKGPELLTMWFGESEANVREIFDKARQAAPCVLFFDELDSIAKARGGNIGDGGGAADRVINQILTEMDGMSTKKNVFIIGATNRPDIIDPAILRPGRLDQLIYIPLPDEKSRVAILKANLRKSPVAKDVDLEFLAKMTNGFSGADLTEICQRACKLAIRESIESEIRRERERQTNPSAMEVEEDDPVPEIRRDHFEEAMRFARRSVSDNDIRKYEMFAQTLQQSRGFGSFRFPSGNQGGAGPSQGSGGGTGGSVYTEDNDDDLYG

[19] = target: Transitional endoplasmic reticulum ATPase (Homo sapiens, UniProt P55072); experiment: p97 ATPase inhibitors, dose response, biochemical (AID 1534)
Transitional endoplasmic reticulum ATPase (Homo sapiens, UniProt P55072), sequence (P55072 whole entry): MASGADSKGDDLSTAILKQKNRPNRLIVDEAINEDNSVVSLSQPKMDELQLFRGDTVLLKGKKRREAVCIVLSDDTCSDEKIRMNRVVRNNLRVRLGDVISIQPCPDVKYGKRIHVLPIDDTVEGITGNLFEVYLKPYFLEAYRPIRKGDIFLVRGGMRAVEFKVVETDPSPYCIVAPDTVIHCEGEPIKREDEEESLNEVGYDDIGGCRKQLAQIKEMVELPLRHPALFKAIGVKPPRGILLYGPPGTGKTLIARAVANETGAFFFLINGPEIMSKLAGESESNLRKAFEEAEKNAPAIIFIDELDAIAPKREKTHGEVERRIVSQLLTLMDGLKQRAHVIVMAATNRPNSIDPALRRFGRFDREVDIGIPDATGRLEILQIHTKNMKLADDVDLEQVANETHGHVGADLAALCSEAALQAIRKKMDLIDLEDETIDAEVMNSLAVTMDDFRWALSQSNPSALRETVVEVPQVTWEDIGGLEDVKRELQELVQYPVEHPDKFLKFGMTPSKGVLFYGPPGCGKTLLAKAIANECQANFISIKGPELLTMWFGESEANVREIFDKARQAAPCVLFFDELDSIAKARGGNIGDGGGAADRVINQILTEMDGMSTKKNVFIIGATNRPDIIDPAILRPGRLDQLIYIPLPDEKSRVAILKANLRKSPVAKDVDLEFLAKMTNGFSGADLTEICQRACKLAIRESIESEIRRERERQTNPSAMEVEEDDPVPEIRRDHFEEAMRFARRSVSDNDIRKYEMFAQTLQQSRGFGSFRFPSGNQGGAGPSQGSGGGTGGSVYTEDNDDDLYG

[20] = target: Induced myeloid leukemia cell differentiation protein Mcl-1 (Homo sapiens, UniProt Q07820); format: functional
Induced myeloid leukemia cell differentiation protein Mcl-1, sequence (Q07820 whole entry): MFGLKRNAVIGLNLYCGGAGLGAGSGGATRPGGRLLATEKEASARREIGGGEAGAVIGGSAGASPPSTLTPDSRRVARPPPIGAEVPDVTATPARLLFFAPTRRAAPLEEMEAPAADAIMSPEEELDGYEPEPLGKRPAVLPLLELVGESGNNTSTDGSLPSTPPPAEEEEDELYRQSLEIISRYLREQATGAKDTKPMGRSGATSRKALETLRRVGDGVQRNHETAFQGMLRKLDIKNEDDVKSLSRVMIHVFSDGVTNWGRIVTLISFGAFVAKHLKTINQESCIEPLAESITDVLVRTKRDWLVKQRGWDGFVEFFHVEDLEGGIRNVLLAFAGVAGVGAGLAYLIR

Troponin, cardiac muscle = Troponin, cardiac muscle (Homo sapiens, UniProt P19429+P45379+P63316); experiment: inhibitors of cardiac thin filament calcium sensitivity, dose response, biochemical, fluorescence, cardiac regulated thin filaments, triplicate IC50 (AID 504742); format: protein-complex assay

COc1ccccc1/C=C/C(=O)OCC(=O)Nc1cc(C(F)(F)F)ccc1N1CCOCC1
IC50 (J774.A1): > 25 µM (inactive)

COc1cc(-c2noc(C)c2/C=C/c2ccc(N)cc2)cc(OC)c1OC
EC50 [1]: < 0.1 µM (active) | EC50 [2]: 0.509 µM (active) | EC50 (BJ [3]): 0.344 µM (active) | EC50 (cells): 0.277 µM (active) | EC50 [4]: < 0.1 µM (active) | EC50 [5]: < 0.1 µM (active) | EC50 (BJ [6]): 0.469 µM (inconclusive) | IC50 [7]: 0.964 µM (active) | EC50 (BJ [8]): 0.38 µM (inconclusive) | EC50 [9]: 0.362 µM (active) | EC50 [10]: 0.335 µM (active)

CC(=O)c1sc2nc(SCC(=O)N3CCCCC3)[nH]c(=O)c2c1C
EC50 [11]: > 79.4 µM (inactive) | IC50 (Bcl-2-like protein 10): > 100 µM (inactive) | EC50 [12]: > 79.4 µM (not active) | IC50 (Estrogen receptor beta): 14.6 µM (active) | EC50 [13]: > 79.4 µM (not active) | IC50 [14]: > 93.1 µM (not active)

c1ccc(Sc2cccc3ccccc23)c(CNC2=NCCN2)c1
EC50 [15]: > 150 µM (inactive) | EC50 [16]: 3.8 µM (active) | IC50 [17]: 11.7 µM (active)

O=C(O[C@@H]1OC2COC(=O)c3cc(O)c(O)c(O)c3-c3c(cc(O)c(O)c3O)C(=O)O[C@@H]([C@H]1O)[C@@H]2O)c1cc(O)c(O)c(O)c1
IC50 [18]: > 50 µM (not active) | IC50 [19]: 4.2 µM (active) | IC50 [20]: 4.48 µM (active) | IC50 (Troponin, cardiac muscle): 0.677 µM (active)
